Test [1] can be described thus: Inhibition of TNF-alpha-induced NF-kappaB activity in human pNF-kappaB-luc-293 cells. It is filed as cell-based. The note with it: HEK293.
Test [2] deals with RAW264.7. Briefly: Antiinflammatory activity in mouse RAW264.7 cells assessed as inhibition of LPS-induced NO release. The class given is functional, cell-based.
Test [3] has as its system LoVo. Put plainly: Antiproliferative activity against human LoVo cells. It is filed as functional, cell-based.
A short description of test [4]: Antiproliferative activity against human QGY7703 cells. It is filed as functional, cell-based. Conditions: QGY-7703.

≈ marks a conversion by molar mass, not a printed value. Where only a bound is given, the exact number is not on record here.

`CC(C)(O)c1ccc2c(c1)C(=O)C[C@H]1[C@](C)(C(=O)O)CCC[C@]21C`: the IC50 in test [1] was greater than 100 µg/mL; in test [2], 44 µg/mL (≈ 133 µM); in test [3] it was greater than 25 µg/mL; in test [4], greater than 25 µg/mL.

For the molecule `CC(C)c1ccc2c(c1)CC[C@H]1[C@](C)(CO)CCC[C@]21C` [POMIFERIN A], the IC50 in test [1] is greater than 100 µg/mL; in test [2] it was greater than 100 µg/mL; in test [3], 9.2 µg/mL (≈ 32.1 µM); in test [4], greater than 25 µg/mL.

Take `CC(C)c1ccc2c(c1)[C@H](O)C[C@H]1[C@](C)(C(=O)O)CCC[C@]21C`: the IC50 is greater than 100 µg/mL in test [1], greater than 100 µg/mL in test [2], greater than 25 µg/mL in test [3] and greater than 25 µg/mL in test [4].

As for `C=C[C@@](C)(O)[C@H]1CC2[C@@]3(C)CCCC(C)(C)C3CC[C@@]2(C)O1` (some centres undefined), the IC50 stood at 8.7 µg/mL (≈ 28.4 µM) in test [1], 21.6 µg/mL (≈ 70.5 µM) in test [2], 23.1 µg/mL (≈ 75.4 µM) in test [3] and 15.7 µg/mL (≈ 51.2 µM) in test [4].

Regarding `CC(C)c1ccc2c(c1)[C@H](O)C[C@H]1[C@](C)(CO)CCC[C@]21C`, the IC50 in test [1] was greater than 100 µg/mL; in test [2], greater than 100 µg/mL; in test [3], 9.2 µg/mL (≈ 30.4 µM); in test [4], greater than 25 µg/mL.

As for `COC(=O)CCC(=O)OC[C@]1(C)CCC[C@]2(C)c3ccc(C(C)C)cc3[C@H](O)C[C@@H]12` [ABIESADINE H], the IC50 in test [1] is greater than 100 µg/mL; in test [2], 83.4 µg/mL (≈ 200 µM); in test [3], greater than 25 µg/mL; in test [4], greater than 25 µg/mL.

With `CC(C)c1ccc2c(c1)[C@@H](O)C[C@H]1[C@](C)(CO)CCC[C@]21C`, the IC50 is greater than 100 µg/mL in test [1], greater than 100 µg/mL in test [2], greater than 25 µg/mL in test [3] and greater than 25 µg/mL in test [4].

With `CC(C)C1=CC2=CC[C@H]3[C@](C)(COC(=O)CCC(=O)O)CCC[C@]3(C)[C@H]2CC1`, the IC50 is greater than 100 µg/mL in test [1], greater than 100 µg/mL in test [2], greater than 25 µg/mL in test [3] and greater than 25 µg/mL in test [4].

For the molecule `C=C[C@@](C)(O)CCC1C(=C)CC[C@H]2[C@](C)(CO)CCC[C@]12C` (some centres undefined) [TORREFEROL], the IC50 in test [1] was greater than 100 µg/mL; in test [2], greater than 100 µg/mL; in test [3], 24.3 µg/mL (≈ 79.3 µM); in test [4], greater than 25 µg/mL.

In the case of `CC(C)c1cc2c(cc1O)[C@@]1(C)CCC[C@@](C)(C(=O)O)[C@@H]1CC2`, the IC50 is greater than 100 µg/mL in test [1], 63 µg/mL (≈ 199 µM) in test [2], greater than 25 µg/mL in test [3] and greater than 25 µg/mL in test [4].

Consider `CC(C)c1ccc2c(c1)CC[C@H]1[C@](C)(C(=O)O)CCC[C@]21C` [DEHYDROABIETIC ACID], for which the IC50 in test [1] is greater than 100 µg/mL; in test [2] it was 42.7 µg/mL (≈ 142 µM); in test [3], greater than 25 µg/mL; in test [4], greater than 25 µg/mL.

The IC50 is the concentration that gives 50% inhibition.

Source of the values: ChEMBL document CHEMBL1157733, “Isolation, structure, and bioactivities of abiesadines A-Y, 25 new diterpenes from Abies georgei Orr” (Bioorg Med Chem, 2010).
